Test results as given in patent US7138411B2, “Substituted benzopyran derivatives for the treatment of inflammation” (G.D. Searle & Co., priority 1997, dated 2006).

How the values were obtained:
COX-1 = COX-1 (UniProt P23219); experiment: Assay for COX-1 activity (PGE2 ELISA); conditions: read-out: COX-1 IC50; 10–20 minutes pre-incubation, reaction stopped after ten minutes, pH 8.0
COX-2 [1] = target: T1, COX-2 (UniProt P35354); experiment: Fast assay for COX-2 activity (PGE2 ELISA); assay type: biochemical, human or murine; conditions: fast assay: 10 min pre-incubation at 25° C., reaction stopped after two minutes, pH 7.5
T1 sequence (P35354 1-604): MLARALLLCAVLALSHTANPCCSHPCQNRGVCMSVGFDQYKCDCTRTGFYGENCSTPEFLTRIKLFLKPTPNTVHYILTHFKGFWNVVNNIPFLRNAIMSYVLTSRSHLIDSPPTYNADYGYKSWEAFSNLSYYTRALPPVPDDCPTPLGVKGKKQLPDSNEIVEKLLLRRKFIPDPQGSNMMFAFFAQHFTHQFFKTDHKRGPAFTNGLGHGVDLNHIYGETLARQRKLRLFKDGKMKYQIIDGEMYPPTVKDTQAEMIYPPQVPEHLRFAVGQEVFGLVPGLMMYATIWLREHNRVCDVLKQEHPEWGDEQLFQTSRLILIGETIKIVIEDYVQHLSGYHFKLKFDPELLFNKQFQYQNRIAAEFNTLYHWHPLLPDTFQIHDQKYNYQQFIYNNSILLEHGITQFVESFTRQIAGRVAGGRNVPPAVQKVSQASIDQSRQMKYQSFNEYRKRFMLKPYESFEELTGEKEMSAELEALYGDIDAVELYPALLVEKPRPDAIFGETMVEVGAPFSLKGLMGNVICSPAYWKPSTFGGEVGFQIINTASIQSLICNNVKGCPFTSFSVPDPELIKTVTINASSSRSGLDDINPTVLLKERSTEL

COX-2 [2] = target: T1, COX-2; experiment: Assay for COX-2 activity (PGE2 ELISA); conditions: read-out: COX-2 IC50; 10–20 minutes pre-incubation, reaction stopped after ten minutes, pH 8.0

IC50 (COX-1) | IC50 (COX-2 [1]) | IC50 (COX-2 [2]) | melting point | Structure (SMILES)
< 0.1 µM | < 0.1 µM | < 0.1 µM | 183.2 to 185.8 °C | C=Cc1cc(Cl)cc2c1OC(C(F)(F)F)C(C(=O)O)=C2 (stereo not drawn) [Example 114, 6-Chloro-8-ethenyl-2-(trifluoramethyl)-2H-1-benzopyran-3-carboxylic acid]
< 0.1 µM | < 0.1 µM | < 0.1 µM | 257.5 to 258.8 °C | O=C(O)C1=Cc2cc(Cl)cc(-c3cccs3)c2OC1C(F)(F)F (stereo not drawn) [Example 116, 6-Chloro-8-(2-thienyl)-2-(trifluoromethyl)-2H-1-benzopyran-3-carboxylic acid]
33 µM | < 0.1 µM | < 0.1 µM | 190.1 to 192.1 °C | O=C(O)C1=Cc2cc(Cl)cc(C#Cc3ccccc3)c2OC1C(F)(F)F (stereo not drawn) [Example 120, 6-Chloro-8-(phenylethynyl)-2-(trifluoromethyl)-2H-1-benzopyran-3-carboxylic acid]
< 0.1 µM | < 0.1 µM | < 0.1 µM | 205.5 to 207.3 °C | O=C(O)C1=Cc2cc(Cl)cc(-c3ccc(Cl)cc3)c2OC1C(F)(F)F (stereo not drawn) [Example 125, 6-Chloro-8-(4-chlorophenyl)-2-(trifluoromethyl)-2H-1-benzopyran-3-carboxylic acid]
0.3 µM | 0.2 µM | < 0.1 µM | 196.3 to 197.7 °C | O=C(O)C1=Cc2cc(Cl)cc(-c3ccccc3)c2OC1C(F)(F)F (stereo not drawn) [Example 129, 6-Chloro-8-phenyl-2-(trifluoromethyl)-2H-1-benzopyran-3-carboxylic acid]
11.1 µM | 0.3 µM | < 0.1 µM | 215 to 216 °C | O=C(O)C1=Cc2cc(-c3ccc(Br)cc3)ccc2OC1C(F)(F)F (stereo not drawn) [Example 138, 6-(4-Bromophenyl)-2-(trifluoromethyl)-2H-1-benzopyran-3-carboxylic acid]
37 µM | 0.5 µM | < 0.1 µM | 262.5 to 263.5 °C | O=C(O)C1=Cc2cc(Cl)c(Cl)cc2SC1C(F)(F)F (stereo not drawn) [Example 154, 6,7-Dichloro-2-(trifluoromethyl)-2H-1-benzothiopyran-3-carboxylic acid]
< 0.1 µM | < 0.1 µM | < 0.1 µM | 129.3 to 132.4 °C | O=C(O)C1=Cc2cc(SC(F)(F)F)ccc2SC1C(F)(F)F (stereo not drawn) [Example 155, 2-(Trifluoromethyl)-6-[(trifluoromethyl)thio]-2H-1-benzothiopyran-3-carboxylic acid]
3.3 µM | < 0.1 µM | 2 µM | 180 to 181 °C | O=C(O)C1=Cc2ccc(Oc3ccccc3)cc2OC1C(F)(F)F (stereo not drawn) [Example 176, 7-Phenoxy-2-(trifluoromethyl)-2H-1-benzopyran-3-carboxylic acid]
> 100 µM | 8.4 µM | 14.7 µM | 203.8 to 205.4 °C | CC(C)(CO)c1cc2c(cc1Cl)C=C(C(=O)O)C(C(F)(F)F)O2 (stereo not drawn) [Example 178, 6-Chloro-7-(2-hydroxy-1,1-dimethylethyl)-2-(trifluoromethyl)-2H-1-benzopyran-3-carboxylic acid]
> 100 µM | 15.6 µM | 16 µM | 228.9 to 230 °C | CC(C)(CO)c1ccc2c(c1)OC(C(F)(F)F)C(C(=O)O)=C2 (stereo not drawn) [Example 179, 7-(2-Hydroxy-1,1-dimethylethyl)-2-(trifluoromethyl)-2H-1-benzopyran-3-carboxylic acid]
> 100 µM | < 0.1 µM | < 0.1 µM | 224.9 to 225.9 °C | O=C(O)C1=Cc2cc(Cl)c(I)cc2OC1C(F)(F)F (stereo not drawn) [Example 180, 6-Chloro-7-iodo-2-(trifluoromethyl)-2H-1-benzopyran-3-carboxylic acid]
> 100 µM | 1.5 µM | > 100 µM | > 300 °C | C#Cc1cc2c(cc1Cl)C=C(C(=O)O)C(C(F)(F)F)O2 (stereo not drawn) [Example 181, 6-Chloro-7-ethynyl-2-(trifluoromethyl)-2H-1-benzopyran-3-carboxylic acid]
> 100 µM | < 0.1 µM | > 100 µM | > 200 °C (dec.) | C=Cc1cc2c(cc1Cl)C=C(C(=O)O)C(C(F)(F)F)O2 (stereo not drawn) [Example 182, 6-Chloro-7-ethenyl-2-(trifluoromethyl)-2H-1-benzopyran-3-carboxylic acid]
4.1 µM | < 0.1 µM | < 0.1 µM | 213.2 to 214.3 °C | COc1ccc(Oc2cc3c(cc2Cl)C=C(C(=O)O)C(C(F)(F)F)O3)cc1 (stereo not drawn) [Example 183, 6-Chloro-7-(4-methoxyphenoxy)-2-(trifluoromethyl)-2H-1-benzopyran-3-carboxylic acid]
1.3 µM | < 0.1 µM | < 0.1 µM | 205.4 to 206.5 °C | O=C(O)C1=Cc2cc(Cl)c(Oc3ccc(Cl)cc3)cc2OC1C(F)(F)F (stereo not drawn) [Example 184, 6-Chloro-7-(4-chlorophenoxy)-2-(trifluoromethyl)-2H-1-benzopyran-3-carboxylic acid]
> 100 µM | < 0.1 µM | < 0.1 µM | 212.5 to 215.7 °C | N#Cc1ccc(Oc2cc3c(cc2Cl)C=C(C(=O)O)C(C(F)(F)F)O3)cc1 (stereo not drawn) [Example 185, 6-Chloro-7-(4-cyanophenoxy)-2-(trifluoromethyl)-2H-1-benzopyran-3-carboxylic acid]
32.8 µM | < 0.1 µM | 3.4 µM | 230.9 to 232 °C | O=C(O)C1=Cc2cc(Cl)c(Oc3ccc(C(F)(F)F)cc3)cc2OC1C(F)(F)F (stereo not drawn) [Example 186, 6-Chloro-2-(trifluoromethyl)-7-[4-(trifluoromethyl)phenoxy]-2H-1-beazopyran-3-carboxylic acid]
> 100 µM | 2.9 µM | 33.7 µM | 198 to 199.2 °C | O=C(O)C1=Cc2cc(Cl)c(Oc3ccc(OC(F)(F)F)cc3)cc2OC1C(F)(F)F (stereo not drawn) [Example 187, 6-Chloro-2-(trifluoromethyl)-7-[4-(trifluoromethoxy)phenoxy]-2H-1-benzopyran-3-carboxlic acid]
44.8 µM | < 0.1 µM | 1.2 µM | 252.6 to 254.8 °C | O=C(O)C1=Cc2cc(Cl)c(Oc3ccc4cc(Br)ccc4c3)cc2OC1C(F)(F)F (stereo not drawn) [Example 189, 7-[(6-Bromo-2-naphthalenyl)oxy]-6-chloro-2-(trifluoromethyl)-2H-1-benzopyran-3-carboxylic acid]
37.4 µM | 0.5 µM | 0.5 µM | 252.7 to 258.6 °C | Cc1cccc(C)c1Oc1cc2c(cc1Cl)C=C(C(=O)O)C(C(F)(F)F)O2 (stereo not drawn) [Example 190, 6-Chloro-7-(2,6-dimethylphenoxy)-2-(trifluoromethyl)-2H-1-benzopyran-3-carboxylic acid]
> 100 µM | < 0.1 µM | 42.2 µM | 239.4 to 242.3 °C | COc1ccc(Sc2cc3c(cc2Cl)C=C(C(=O)O)C(C(F)(F)F)O3)cc1 (stereo not drawn) [Example 191, 6-Chloro-7-[(4-methoxyphenyl)thio]-2-(trifluoromethyl)-2H-1-benzopyran-3-carboxylic acid]
12.3 µM | < 0.1 µM | 1.4 µM | 251.7 to 253.3 °C | O=C(O)C1=Cc2cc(Cl)c(Sc3ccc(Cl)cc3)cc2OC1C(F)(F)F (stereo not drawn) [Example 192, 6-Chloro-7-[(4-chlorophenyl)thio]-2-(trifluoromethyl)-2H-1-benzopyran-3-carboxylic acid]
> 100 µM | 1.2 µM | > 100 µM | 213.8 to 217.4 °C | O=C(O)C1=Cc2cc(Cl)c([S+]([O-])c3ccc(Cl)cc3)cc2OC1C(F)(F)F (stereo not drawn) [Example 193, 6-Chloro-7-[(4-chlorophenyl)sulfinyl]-2-(trifluoromethyl)-2H-1-benzopyran-3-carboxylic acid]
2.6 µM | < 0.1 µM | < 0.1 µM | 271.7 to 274.4 °C | O=C(O)C1=Cc2cc(Cl)c(Sc3ccccc3)cc2OC1C(F)(F)F (stereo not drawn) [Example 195, 6-Chloro-7-(phenylthio)-2-(trifluoromethyl)-2H-1-benzopyran-3-carboxylic acid]
30.3 µM | < 0.1 µM | 9.5 µM | 174.1 to 176.1 °C | O=C(O)C1=Cc2cc(Cl)c(Oc3cccc(Cl)c3)cc2OC1C(F)(F)F (stereo not drawn) [Example 196, 6-Chloro-7-(3-chlorophenoxy)-2-(trifluoromethyl)-2H-1-benzopyran-3-carboxylic acid]
0.4 µM | < 0.1 µM | < 0.1 µM | 233 to 234 °C | O=C(O)C1=Cc2cc(Cl)c(Oc3ccc(Cl)cc3Cl)cc2OC1C(F)(F)F (stereo not drawn) [Example 197, 6-Chloro-7-(2,4-dichlorophenoxy)-2-(trifluoromethyl)-2H-1-benzopyran-3-carboxylic acid]
